{
  "source": "ChEMBL document CHEMBL1201862",
  "about": "“PubChem BioAssay data set” (2004)",
  "key": {"[1]": {"molecular_target": "T1, Sentrin-specific protease 1 (Homo sapiens, UniProt Q9P0U3)", "T1 sequence (Q9P0U3 whole entry)": "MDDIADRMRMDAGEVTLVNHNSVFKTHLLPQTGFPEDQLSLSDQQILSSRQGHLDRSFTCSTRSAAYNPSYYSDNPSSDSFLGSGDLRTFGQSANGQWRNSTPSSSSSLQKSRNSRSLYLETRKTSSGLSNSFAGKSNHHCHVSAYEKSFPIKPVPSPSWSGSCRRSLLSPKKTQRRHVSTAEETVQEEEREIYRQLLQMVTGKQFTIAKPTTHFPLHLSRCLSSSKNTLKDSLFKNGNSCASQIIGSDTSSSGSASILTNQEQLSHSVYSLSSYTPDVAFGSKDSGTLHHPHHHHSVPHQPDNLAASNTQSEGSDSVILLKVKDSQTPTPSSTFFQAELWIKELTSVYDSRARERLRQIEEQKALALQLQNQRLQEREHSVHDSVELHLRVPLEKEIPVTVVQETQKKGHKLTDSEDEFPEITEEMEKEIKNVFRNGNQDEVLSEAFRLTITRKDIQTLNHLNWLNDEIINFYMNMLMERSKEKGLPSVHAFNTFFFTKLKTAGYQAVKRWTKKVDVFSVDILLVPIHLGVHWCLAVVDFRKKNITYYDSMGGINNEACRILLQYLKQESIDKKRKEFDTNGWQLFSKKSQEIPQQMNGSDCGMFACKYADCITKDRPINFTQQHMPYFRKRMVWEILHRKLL", "experiment": "Dose response confirmation of small molecule inhibitors of the catalytic domain of the SUMO protease, SENP1 in a FRET assay.", "assay_type": "functional", "settings": "read-out: IC50_Mean"}, "Beta-lactamase [2]": {"molecular_target": "Beta-lactamase (Salmonella choleraesuis (strain SC-B67), UniProt Q5J463)", "sequence (Q5J463 whole entry)": "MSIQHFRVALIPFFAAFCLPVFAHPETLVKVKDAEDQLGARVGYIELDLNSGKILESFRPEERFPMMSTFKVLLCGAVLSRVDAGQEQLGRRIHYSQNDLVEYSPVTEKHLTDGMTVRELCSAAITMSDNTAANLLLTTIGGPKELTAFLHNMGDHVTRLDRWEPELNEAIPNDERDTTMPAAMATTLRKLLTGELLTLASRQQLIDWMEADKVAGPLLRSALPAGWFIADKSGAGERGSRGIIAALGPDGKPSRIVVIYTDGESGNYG"}, "Beta Lactamase": {"molecular_target": "Beta Lactamase (Pseudomonas aeruginosa, UniProt Q932Y6)", "sequence (Q932Y6 whole entry)": "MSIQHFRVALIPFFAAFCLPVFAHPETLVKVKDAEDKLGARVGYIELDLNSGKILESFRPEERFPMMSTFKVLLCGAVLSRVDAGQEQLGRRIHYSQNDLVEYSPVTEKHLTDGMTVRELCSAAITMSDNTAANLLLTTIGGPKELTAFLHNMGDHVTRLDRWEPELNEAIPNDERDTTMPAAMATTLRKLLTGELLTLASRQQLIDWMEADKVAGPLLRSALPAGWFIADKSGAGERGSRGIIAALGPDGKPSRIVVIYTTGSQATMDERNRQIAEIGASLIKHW"}, "Beta-lactamase [3]": {"molecular_target": "Beta-lactamase (Pseudomonas aeruginosa, UniProt Q79MP6)", "sequence (Q79MP6 whole entry)": "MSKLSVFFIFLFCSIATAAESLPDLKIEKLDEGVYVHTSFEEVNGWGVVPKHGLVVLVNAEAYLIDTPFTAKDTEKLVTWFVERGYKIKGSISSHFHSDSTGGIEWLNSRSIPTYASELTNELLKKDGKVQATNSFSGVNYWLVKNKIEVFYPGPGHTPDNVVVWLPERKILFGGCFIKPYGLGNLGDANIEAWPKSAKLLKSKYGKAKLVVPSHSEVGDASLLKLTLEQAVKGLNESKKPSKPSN"}, "[4]": {"molecular_target": "T1, Sentrin-specific protease 1", "experiment": "potency of human SENP1 inhibitors, dose response, biochemical, kinetic FRET (AID 651697)", "assay_type": "functional", "settings": "read-out: IC50_Mean"}, "[5]": {"molecular_target": "Broad substrate specificity ATP-binding cassette transporter ABCG2 (Homo sapiens, UniProt Q9UNQ0)", "sequence (Q9UNQ0 whole entry)": "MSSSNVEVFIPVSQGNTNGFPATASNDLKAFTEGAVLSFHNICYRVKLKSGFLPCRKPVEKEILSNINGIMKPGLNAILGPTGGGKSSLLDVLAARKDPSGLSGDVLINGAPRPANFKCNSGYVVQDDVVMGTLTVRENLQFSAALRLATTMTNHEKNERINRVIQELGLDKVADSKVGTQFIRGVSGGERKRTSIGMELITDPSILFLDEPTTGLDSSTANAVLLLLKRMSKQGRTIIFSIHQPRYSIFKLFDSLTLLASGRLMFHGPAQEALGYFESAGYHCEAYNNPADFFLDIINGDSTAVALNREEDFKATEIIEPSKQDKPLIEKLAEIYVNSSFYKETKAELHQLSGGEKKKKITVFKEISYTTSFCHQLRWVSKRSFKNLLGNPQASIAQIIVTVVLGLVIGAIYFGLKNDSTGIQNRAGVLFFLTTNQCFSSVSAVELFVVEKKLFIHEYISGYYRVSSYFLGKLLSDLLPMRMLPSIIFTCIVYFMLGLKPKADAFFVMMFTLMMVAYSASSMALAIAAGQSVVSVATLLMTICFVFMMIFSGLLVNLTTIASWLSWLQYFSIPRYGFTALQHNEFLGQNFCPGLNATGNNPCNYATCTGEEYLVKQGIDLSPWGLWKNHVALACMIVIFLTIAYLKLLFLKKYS", "experiment": "ABCG2 efflux pump inhibitors, dose response, Ig-MXP3 cells, flow cytometry (AID 1690)", "assay_type": "functional"}, "[6]": {"molecular_target": "ATP-dependent translocase ABCB1 (Homo sapiens, UniProt P08183)", "sequence (P08183 whole entry)": "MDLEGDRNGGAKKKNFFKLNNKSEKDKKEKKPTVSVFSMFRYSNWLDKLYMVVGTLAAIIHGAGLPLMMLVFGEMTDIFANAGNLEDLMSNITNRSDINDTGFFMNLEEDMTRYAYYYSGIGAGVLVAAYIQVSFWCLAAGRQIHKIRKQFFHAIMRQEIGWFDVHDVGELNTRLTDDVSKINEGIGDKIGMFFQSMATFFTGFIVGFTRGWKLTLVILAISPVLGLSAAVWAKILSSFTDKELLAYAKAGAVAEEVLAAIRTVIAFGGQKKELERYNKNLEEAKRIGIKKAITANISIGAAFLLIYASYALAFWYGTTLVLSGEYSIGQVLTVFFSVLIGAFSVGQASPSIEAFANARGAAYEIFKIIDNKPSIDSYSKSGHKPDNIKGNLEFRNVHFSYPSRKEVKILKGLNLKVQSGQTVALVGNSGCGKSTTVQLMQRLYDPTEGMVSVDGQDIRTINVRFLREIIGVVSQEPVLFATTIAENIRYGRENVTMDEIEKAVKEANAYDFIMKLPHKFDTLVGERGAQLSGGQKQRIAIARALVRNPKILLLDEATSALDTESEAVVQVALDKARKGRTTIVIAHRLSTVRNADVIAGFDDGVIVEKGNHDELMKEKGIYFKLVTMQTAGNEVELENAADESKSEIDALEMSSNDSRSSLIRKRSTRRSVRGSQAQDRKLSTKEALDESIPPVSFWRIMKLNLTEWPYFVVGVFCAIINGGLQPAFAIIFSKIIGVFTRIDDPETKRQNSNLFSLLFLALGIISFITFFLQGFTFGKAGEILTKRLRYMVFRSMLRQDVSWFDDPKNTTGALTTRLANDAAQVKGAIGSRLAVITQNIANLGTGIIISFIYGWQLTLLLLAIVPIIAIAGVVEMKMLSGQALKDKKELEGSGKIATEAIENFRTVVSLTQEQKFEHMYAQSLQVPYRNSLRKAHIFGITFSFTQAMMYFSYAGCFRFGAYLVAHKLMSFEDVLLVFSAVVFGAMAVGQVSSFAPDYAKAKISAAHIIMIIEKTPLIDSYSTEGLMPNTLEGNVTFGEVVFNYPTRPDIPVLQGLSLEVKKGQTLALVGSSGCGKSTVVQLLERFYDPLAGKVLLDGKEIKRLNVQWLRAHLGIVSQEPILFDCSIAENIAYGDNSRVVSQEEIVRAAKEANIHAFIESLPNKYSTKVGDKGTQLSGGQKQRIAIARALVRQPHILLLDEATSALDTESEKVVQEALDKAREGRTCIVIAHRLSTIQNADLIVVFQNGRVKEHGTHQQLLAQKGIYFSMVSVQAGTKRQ", "experiment": "ABCB1 efflux pump inhibitor potency, dose response, Jurkat-DNR cells, JC-1, flow cytometry (AID 1689)", "assay_type": "functional"}, "[7]": {"molecular_target": "Adenosylmethionine-8-amino-7-oxononanoate aminotransferase (Mycobacterium tuberculosis, UniProt P9WQ81)", "sequence (P9WQ81 whole entry)": "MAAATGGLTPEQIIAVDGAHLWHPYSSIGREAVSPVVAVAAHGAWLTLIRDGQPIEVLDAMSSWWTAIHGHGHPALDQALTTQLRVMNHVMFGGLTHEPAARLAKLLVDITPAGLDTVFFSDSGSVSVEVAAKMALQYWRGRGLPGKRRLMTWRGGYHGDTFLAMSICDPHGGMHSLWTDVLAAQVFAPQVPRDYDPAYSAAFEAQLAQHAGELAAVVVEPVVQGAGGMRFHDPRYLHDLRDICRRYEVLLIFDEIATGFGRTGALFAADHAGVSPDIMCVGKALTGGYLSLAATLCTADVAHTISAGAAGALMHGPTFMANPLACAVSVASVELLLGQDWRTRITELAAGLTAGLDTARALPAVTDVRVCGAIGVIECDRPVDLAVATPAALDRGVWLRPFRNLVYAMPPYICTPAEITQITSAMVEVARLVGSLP", "experiment": "Mycobacterium tuberculosis BioA enzyme inhibitor Measured in Biochemical System Using Plate Reader - 2163-02_Inhibitor_Dose_CherryPick_Activity.", "assay_type": "functional, Mycobacterium tuberculosis UT205"}, "Interleukin-8 [8]": {"molecular_target": "T2, Interleukin-8 (Homo sapiens, UniProt P10145)", "T2 sequence (P10145 whole entry)": "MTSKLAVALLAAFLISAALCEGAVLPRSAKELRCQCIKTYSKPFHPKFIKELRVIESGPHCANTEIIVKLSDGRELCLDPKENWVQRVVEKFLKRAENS", "experiment": "Dose Response confirmation of uHTS small molecule hits for cystic fibrosis induced NFkb Inhibitors in a PAF-induced IL8 counterscreen.", "assay_type": "functional", "settings": "read-out: IC50_Mean"}, "Interleukin-8 [9]": {"molecular_target": "T2, Interleukin-8", "experiment": "Dose Response confirmation of uHTS small molecule hits for cystic fibrosis induced NFkb Inhibitors in a TNFa-induced IL8 counterscreen.", "assay_type": "functional", "settings": "read-out: IC50_Mean"}, "[10]": {"molecular_target": "T3, Mitochondrial peptide methionine sulfoxide reductase (Bos taurus, UniProt P54149)", "T3 sequence (P54149 whole entry)": "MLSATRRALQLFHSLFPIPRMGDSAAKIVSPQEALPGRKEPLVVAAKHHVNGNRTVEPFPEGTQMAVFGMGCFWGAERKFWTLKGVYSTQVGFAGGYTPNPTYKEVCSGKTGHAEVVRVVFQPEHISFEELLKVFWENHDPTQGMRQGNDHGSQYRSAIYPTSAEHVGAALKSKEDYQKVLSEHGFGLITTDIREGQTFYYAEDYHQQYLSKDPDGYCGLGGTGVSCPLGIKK", "assay_type": "functional"}},
  "note": "Activity calls are given as the source filed them.",
  "data": [
    {"smiles": "O=C1C2C(c3ccccc3)C=CC(c3ccccc3)C2C(=O)N1c1ccccn1", "note": "(stereo unspecified)", "values": [
      {"measurement": "IC50", "setting": "[1]", "value": "7.9 µM (active)"},
      {"measurement": "IC50", "setting": "Beta-lactamase [2]", "value": "> 59.6 µM (inactive)"},
      {"measurement": "IC50", "setting": "Beta Lactamase", "value": "59.6 µM (inactive)"},
      {"measurement": "IC50", "setting": "Beta-lactamase [3]", "value": "11.5 µM (inactive)"},
      {"measurement": "IC50", "setting": "[4]", "value": "10.8 µM (active)"}
    ]},
    {"smiles": "COc1ccc(/C=N/NC(=O)c2ccccc2F)cc1CN1CCN(c2ccc(F)cc2)CC1", "values": [
      {"measurement": "EC50", "setting": "[5]", "value": "4.07 µM (active)"},
      {"measurement": "EC50", "setting": "[6]", "value": "3.08 µM (active)"}
    ]},
    {"smiles": "COc1ccc(-c2ccc3c(c2)C2CC3CCN2)cc1", "note": "(stereo unspecified)", "values": [
      {"measurement": "AC50", "setting": "[7]", "value": "1.07 µM (active)"}
    ]},
    {"smiles": "CNc1ccc2ncc(-c3cccc(C(=O)N(C)C)c3)n2n1", "values": [
      {"measurement": "IC50", "setting": "Interleukin-8 [8]", "value": "2.04 µM (active)"},
      {"measurement": "IC50", "setting": "Interleukin-8 [9]", "value": "> 79 µM (inactive)"}
    ]},
    {"smiles": "O=C(O)c1cccc(N/N=C/c2sc(N3CCOCC3)nc2-c2ccccc2)c1", "values": [
      {"measurement": "IC50", "setting": "[10]", "value": "155 µM (inactive)"}
    ]}
  ]
}
